Patent US20230355596A1, “COMPOSITIONS AND METHODS OF USING NMDAR INHIBITORS AND KINASE INHIBITORS TO TREAT LIVER CANCER” (The University of Hong Kong, priority 2022, published 2023)

Experiments:
[1] = test system: MHCC97L-derived and patient-derived xenografts; assay: Western blot and immunohistochemistry of resected xenografts; format: in vivo, mouse; conditions: HCC patient-derived xenograft PDX1
Procedure: 5×10^5 MHCC97L cells, 3.5×10^5 cells (for PDX1) and 1×10^5 cells (for PDX2) dissociated from HCC patient derived xenograft (PDX), were injected subcutaneously into the left flank of 4 to 5-week-old male BALB/c nude mice and NOD/SCID mice, respectively. 1×10^4 RIL-175 cells were injected into the right median lobe of the livers from 9 to 12-week-old male C57BL/6N mice. Size of subcutaneously xenografted tumors was measured by an external caliper and tumor volume was estimated by the equation: Volume=½ (Length×Width^2), where the length and width represent the largest and smallest diameters, respectively. Drug administration began when the subcutaneous tumor reached ˜0.05 cm3 in size or at day 5 post-injection (for RIL-175 cells), at which point mice were divided into four groups randomly for daily treatment with DMSO, ifenprodil (20 mg/kg/day, intraperitoneally), sorafenib (28 mg/kg/day, orally), or the combination. […] Tumor volume and body weight of each mouse were then measured every two days. […] The mice were checked every two days, and tumor incidence and latency were recorded. […]
Cells or homogenized tissues collected from xenografts were lysed by 2X RIPA lysis buffer supplemented with protease inhibitor cocktail (ProBlock™ Gold Mammalian, Goldbio), PhosSTOP (Roche), 1 mM Na3VO4, and 1 mM NaF. […] Supernatants were quantified using the Bradford assay (BioRad). […]

MHCC97L cells [2] = assay: RNA-sequencing of drug-treated cells; format: cell-based, human; conditions: 10 μM ifenprodil, 5 μM sorafenib, 24 hours
Procedure: 3×10^5 MHCC97L cells were seeded onto a 10 -cm dish. 10 μM ifenprodil, 5 μM sorafenib, or both were added to the cells 1 day after seeding, and the control group was treated with DMSO (Sigma-Aldrich). After 24 hours of drug treatment, RNA was extracted using the MiniBEST Universal RNA Extraction Kit (TaKaRa) following the manufacturer's protocol. The final product was eluted in DEPC-treated H2O (ThermoFisher Scientific). RNA-seq experiments were performed at the Centre for Genomic Sciences (LKS Faculty of Medicine, The University of Hong Kong). The Illumina adaptors of the paired-end raw sequence reads were trimmed by Trimmomatic 0.39. The STAR aligner version 2.7 was used to align the sequence reads to the human genome (GRCh38.p13, Ensembl release 99) and quantify read counts for each Ensembl gene feature, which generated the raw count gene matrix. Differential expression analysis was performed in R (v 3.6.3) using DESeq2 (1.26.0) with the raw count matrix as input. Three biological replicates each for the ifenprodil-, sorafenib-, and ifenprodil+sorafenib combination-treated groups are compared against the DMSO-treated negative control group. Differentially expressed genes (DEGs) were identified as genes with the absolute values of its shrunken log2 fold-changes bigger than 1 and a false discovery rate smaller than 0.05. Gene annotation was done using the bioMaRt (2.42.1) package with Ensembl Human genes (GRCh38.p13) dataset. Gene ontology enrichment analysis was performed on up/down regulated DEGs retrieved from either ifenprodil, sorafenib, or ifenprodil+sorafenib treatment using string v11.0 (internet site: string-db.org/). Top hits Gene ontologies (biological processes) were identified as GO enriched with a false discovery rate less than 0.01 and contain more than 40 observations for over-expressions and down-regulations of DEGs in total across all treatments. More specific GO terms containing fewer than 3000 genes and fewer than 300 observations across all treatments were then focused on.

MHCC97L cells [3] = assay: Cell cycle analysis (PI staining, flow cytometry); format: cell-based, human; conditions: 10 μM ifenprodil, 5 μM sorafenib, 24 hours
From the text: Cells transduced with florescent proteins were trypsinized, washed with PBS, and resuspended in PBS containing 2% FBS. Resuspended cells were subjected to flow cytometry analysis using the BD FACSCantoII, ACEA NovoCyte Quanteon (Agilent) or BD LSR Fortessa Analyzer (BD Biosciences). The signal of TurboRFP and EGFP was detected by a 561 nm yellow-green laser (610/20 nm) and a 488 nm blue laser (530/30 nm), respectively. For cell cycle analysis, cells harvested by trypsinization were washed by PBS. Cell pellets were fixed by ice-cold 70% ethanol at 4° C. for 1 hour. The fixed cells were rehydrated by replacing ethanol with PBS for 15 minutes at room temperature for cell cycle analysis. To remove RNAs, 5 μl RNase A (10 mg/ml) per 500 μl PBS was added and incubated at 37° C. for 15 minutes. The DNA contents were stained by propidium iodide (ThermoFisher Scientific) for 1 hour at room temperature in dark. Signal was detected by a 561 nm yellow-green laser (581/15 nm). FlowJo software (v10.5.3, Becton Dickinson) was used for data analysis. For cell sorting, cells were collected following the normal trypsinization and PBS washing steps. Cell pellets were resuspended in PBS with 2% FBS and 2X antibiotic-antimycotic. […] Signal was detected by a 488 nm blue laser (530/40 nm). ˜500-fold more cells were sorted into culture medium supplemented with 10% FBS and 2X antibiotic-antimycotic. […]

Row | SMILES | tumor vasculature (CD31-positive vessels) [1] | CDK1A expression (RNA-seq) compared to non-treated cells (MHCC97L cells [2]) | CDK2 expression (RNA-seq) compared to non-treated cells (MHCC97L cells [2]) | DDIT3 expression (RNA-seq) compared to non-treated cells (MHCC97L cells [2]) | ERN1 expression (RNA-seq) compared to non-treated cells (MHCC97L cells [2]) | G1-phase cell-cycle arrest (MHCC97L cells [3])
1 | CC(C(O)c1ccc(O)cc1)N1CCC(Cc2ccccc2)CC1 (stereo not drawn) [Ifenprodil, ifenprodil] | inhibited tumor vasculature | significantly upregulated | significantly downregulated | significantly upregulated | no differences were observed | not with either IFEN or SOR alone
2 | CNC(=O)c1cc(Oc2ccc(NC(=O)Nc3ccc(Cl)c(C(F)(F)F)c3)cc2)ccn1 [Sorafenib, sorafenib] | inhibited tumor vasculature | significantly upregulated | significantly downregulated | significantly upregulated | significantly upregulated | not with either IFEN or SOR alone
